Test results published in article PMC6707612, “Cyclic-di-GMP binds to histidine kinase RavS to control RavS-RavR phosphotransfer and regulates the bacterial lifestyle transition between virulence and swimming” (PLoS Pathogens, 2019).
Entries after “also recorded” stand apart in the source; their conditions may differ.

Columns and labels:
RavS^ΔN = biological target: T1, RavS^ΔN (Xanthomonas campestris pv. campestris, UniProt Q8P9A6); experiment: in vitro RavS-RavR phosphotransfer assay (RavS~P level by autoradiography); type: biochemical; details: specificity control nucleotides
T1 sequence (Q8P9A6 352-697): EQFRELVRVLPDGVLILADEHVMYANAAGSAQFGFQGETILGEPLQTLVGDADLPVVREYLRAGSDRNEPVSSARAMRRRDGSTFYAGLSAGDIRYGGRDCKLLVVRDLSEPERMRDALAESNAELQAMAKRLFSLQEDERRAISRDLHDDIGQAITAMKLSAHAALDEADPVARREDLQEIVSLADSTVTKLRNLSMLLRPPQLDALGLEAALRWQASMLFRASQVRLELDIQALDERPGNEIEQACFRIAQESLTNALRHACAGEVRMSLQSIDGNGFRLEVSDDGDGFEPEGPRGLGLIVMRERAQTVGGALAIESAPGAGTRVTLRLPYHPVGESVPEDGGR
Method: (a) c-di-GMP enhances RavS-RavR phosphotransfer in vitro. A total of 5 μM RavS^ΔN was autophosphorylated for 15 min by the addition of 10 μCi [γ-^32P]ATP. A total of 15 μM RavR^ΔEAL or RavR^ΔEAL(D496A) was added and incubated for 30 min at 25°C. A total of 100 μM c-di-GMP was added if necessary. The reactions were terminated with 5× SDS loading buffer before autoradiography. The experiment was repeated three times. (b) Time course analyses of the impact of c-di-GMP on the velocity of RavS-RavR phosphotransfer. The autophosphorylation and phosphotransfer reactions were set as mentioned in (a). Various concentrations of c-di-GMP were added to the reactions and isotopic signals (band intensities) of RavS~P were measured after autoradiography. (c–d) c-di-GMP triggered an increase in RavS-RavR phosphotransfer in a dose-dependent manner. (c) Various concentrations of c-di-GMP (0, 5, 10, 15, 30, 50, 75 and 100 μM) were added to the RavS-RavR phosphotransfer reactions. (d) The phosphorylated level of RavS^ΔN~P was quantified by ImageJ and the EC50 value was estimated by Origin 8.5 software. In (b) and (d), the intensity of each data point is the average from three experimental repeats. (e) c-di-GMP triggered increase in RavS-RavR phosphotransfer is highly specific. […] (f) RavS specifically interacts with fl-c-di-GMP. The interaction between RavS^ΔTrM and various nucleotides, including fl-c-di-GMP, fl-cGMP and fl-c-di-AMP, were measured by microscale thermophoresis (MST). A total of 20 nM fluorescein-labelled nucleotides and increasing concentrations of proteins were incubated and measured by MST. The dissociation constant (Kd) was quantified to estimate the binding affinity. Each experiment was repeated three times.
An in vitro autophosphorylation assay was conducted as described in our previous study. Purified protein was incubated with 10 μM ATP containing 10 μCi [γ-^32P]ATP (PerkinElmer, USA) in the reaction buffer (50 mM Tris-HCl, pH 7.8, 25 mM NaCl, 25 mM KCl, 5 mM MgCl2, 2 mM DTT) for the indicated time at 28°C. If necessary, c-di-GMP was added to the mixture at the same time as ATP. For the phosphoryl transfer assay, purified RR protein or its derivative was added into the reaction mixture containing the phosphorylated HK. The autophosphorylation or phosphoryl transfer reaction was terminated by adding 5× SDS-PAGE loading buffer. Phosphorylated proteins were separated by 12% SDS-PAGE. After electrophoresis, gels were exposed to a phosphor screen (GE Healthcare) and the autoradiographic signals were detected by a Typhoon FLA7000 (GE Healthcare).

[1] = biological target: EAL domain of RavR (Xanthomonas campestris pv. campestris); experiment: SEC + AUC; purified EAL protein, 15 uM, incubated with 300 uM c-di-GMP in phosphodiesterase reaction buffer (50 mM Tris-HCl pH 7.5, 250 mM NaCl, 25 mM KCl, 10 mM MgCl2, 2 mM DTT) at 4 C for 30 min; Superdex 75 10/300 GL to separate dimer and monomer; molecular weight of each fraction determined by analytical ultracentrifugation
RavS^ΔTrM = biological target: T2, RavS^ΔTrM (Xanthomonas campestris pv. campestris, UniProt Q8P9A6); experiment: microscale thermophoresis (MST) binding; details: 20 nM fluorescein-labelled nucleotide
T2 sequence (Q8P9A6 47-697): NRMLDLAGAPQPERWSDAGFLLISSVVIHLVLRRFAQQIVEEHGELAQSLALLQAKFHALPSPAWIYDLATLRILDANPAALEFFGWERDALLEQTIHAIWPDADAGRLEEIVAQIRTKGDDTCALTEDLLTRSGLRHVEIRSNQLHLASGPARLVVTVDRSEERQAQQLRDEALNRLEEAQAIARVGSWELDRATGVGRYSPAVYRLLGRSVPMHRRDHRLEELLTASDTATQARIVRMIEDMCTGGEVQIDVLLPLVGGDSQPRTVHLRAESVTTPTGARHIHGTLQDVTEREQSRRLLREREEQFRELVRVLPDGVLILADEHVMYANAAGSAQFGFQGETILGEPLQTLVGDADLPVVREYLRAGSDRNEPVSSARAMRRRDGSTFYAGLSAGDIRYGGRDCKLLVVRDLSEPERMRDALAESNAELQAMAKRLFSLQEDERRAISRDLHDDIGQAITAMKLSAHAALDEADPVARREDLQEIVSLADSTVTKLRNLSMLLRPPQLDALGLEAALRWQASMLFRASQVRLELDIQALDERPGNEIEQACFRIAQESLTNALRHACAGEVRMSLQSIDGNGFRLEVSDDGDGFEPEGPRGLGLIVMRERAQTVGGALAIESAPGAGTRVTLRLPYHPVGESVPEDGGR
Method: (a) c-di-GMP enhances RavS-RavR phosphotransfer in vitro. A total of 5 μM RavS^ΔN was autophosphorylated for 15 min by the addition of 10 μCi [γ-^32P]ATP. A total of 15 μM RavR^ΔEAL or RavR^ΔEAL(D496A) was added and incubated for 30 min at 25°C. A total of 100 μM c-di-GMP was added if necessary. The reactions were terminated with 5× SDS loading buffer before autoradiography. The experiment was repeated three times. (b) Time course analyses of the impact of c-di-GMP on the velocity of RavS-RavR phosphotransfer. The autophosphorylation and phosphotransfer reactions were set as mentioned in (a). Various concentrations of c-di-GMP were added to the reactions and isotopic signals (band intensities) of RavS~P were measured after autoradiography. (c–d) c-di-GMP triggered an increase in RavS-RavR phosphotransfer in a dose-dependent manner. (c) Various concentrations of c-di-GMP (0, 5, 10, 15, 30, 50, 75 and 100 μM) were added to the RavS-RavR phosphotransfer reactions. (d) The phosphorylated level of RavS^ΔN~P was quantified by ImageJ and the EC50 value was estimated by Origin 8.5 software. In (b) and (d), the intensity of each data point is the average from three experimental repeats. (e) c-di-GMP triggered increase in RavS-RavR phosphotransfer is highly specific. […] The interaction between RavS^ΔTrM and various nucleotides, including fl-c-di-GMP, fl-cGMP and fl-c-di-AMP, were measured by microscale thermophoresis (MST). A total of 20 nM fluorescein-labelled nucleotides and increasing concentrations of proteins were incubated and measured by MST. The dissociation constant (Kd) was quantified to estimate the binding affinity. […]
The interaction between c-di-GMP nucleotides and various proteins was measured by using MST with a fluorescein-labelled c-di-GMP (2′-Fluo-AHC-c-di-GMP, abbreviated as fl-c-di-GMP; 2′-Fluo-AHC-c-di-AMP, fl-c-di-AMP; 2′-Fluo-AHC-cGMP, fl-cGMP; Biolog, Germany). These chemicals contain carboxyfluorescein that has excitation and emission wavelengths of 497 nm and 520 nm, respectively, which can be detected directly by a MST instrument. […]

| Compound | impact on RavS phosphotransferase activity / velocity of RavS-RavR phosphotransfer (RavS^ΔN) | other results |
| --- | --- | --- |
| Nc1ncnc2c1ncn2[C@@H]1O[C@@H]2COP(=O)(O)O[C@H]3[C@@H](O)[C@H](n4cnc5c(N)ncnc54)O[C@@H]3COP(=O)(O)O[C@H]2[C@H]1O [c-di-AMP] | did not affect; also recorded: did not have any impact | – |
| Nc1nc2c(ncn2[C@@H]2O[C@H](COP(=O)(O)O)[C@@H](O)[C@H]2O)c(=O)[nH]1 [GMP] | did not affect; also recorded: did not have any impact | – |
| Nc1nc2c(ncn2[C@@H]2O[C@@H]3COP(=O)(O)O[C@H]3[C@H]2O)c(=O)[nH]1 [cGMP] | did not affect; also recorded: did not have any impact | – |
| EAL domain of RavR (domain or fragment) | – | stoichiometry N [1]: 2 |
| 2′-Fluo-AHC-c-di-AMP [fl-c-di-AMP] | – | dissociation constant (Kd) (RavS^ΔTrM): no binding; also recorded: completely failed to bind |
| Nc1nc2c(ncn2[C@@H]2O[C@H](COP(=O)(O)OP(=O)(O)OP(=O)(O)O)[C@@H](O)[C@H]2O)c(=O)[nH]1 [GTP] | did not affect; also recorded: did not have any impact | – |
| 2′-Fluo-AHC-cGMP [fl-cGMP] | – | Kd (RavS^ΔTrM; read-out: dissociation constant (Kd)): 64.4 ± 9.43 µM |
